SMILES strings stand for the structures. Values after ≈ are worked out from the molar mass of the structure shown.

The test system of one assay is C. albicans V. Briefly: MIC of agents individually and in combination (broth, microtitre plate). To be noted: Candida albicans, read-out: MIC: Individual Agents.
Another assay concerns C. albicans 159. As to the kind of experiment: microbe, parasite or virus in culture. To be noted: Candida albicans, 159, read-out: MIC: Individual Agents.
The subject of another assay is Staph. aureus 1300. As to the kind of experiment: microbe, parasite or virus in culture. To be noted: Staphylococcus aureus, 1300, read-out: MIC: Individual Agents.
A further assay deals with Staph. aureus NCTC 10788. As to the kind of experiment: microbe, parasite or virus in culture. To be noted: Staphylococcus aureus, NCTC10788, read-out: MIC: Individual Agents.
Another assay relates to C. albicans V ATCC 10231. Briefly: MIC of silver nitrate and clotrimazole individually and in combination (broth, microtitre plate). In kind it is cell-based, Candida albicans. To be noted: for MIC: Combination of Agents, Clotrimazole: in combination with silver nitrate; for MIC: Combination of Agents, Clotrimazole / MIC: Individual Agents / MIC: Combination of Agents, Silver nitrate: C. albicans V ATCC 10231; for MIC: Individual Agents: alone; for MIC: Combination of Agents, Silver nitrate: in combination with clotrimazole.

Another assay deals with Enterococcus 0022. As to the kind of experiment: microbe, parasite or virus in culture. To be noted: Enterococcus, 0022, read-out: MIC: Individual Agents.
Another assay concerns C. albicans I. Briefly: microbe, parasite or virus in culture. To be noted: Candida albicans, read-out: MIC: Individual Agents.
A further assay relates to Staph. aureus. Briefly: microbe, parasite or virus in culture. To be noted: Staphylococcus aureus, read-out: MIC: Individual Agents.
A further assay has as its system E. Coli 0029. As to the kind of experiment: microbe, parasite or virus in culture. To be noted: Escherichia coli, read-out: MIC: Individual Agents.

Procedure for C. albicans 159: (§1) The test method employed was as follows suspensions of each agent or combination of agents were prepared at a range of dilutions in 60% propylene glycol in water. Isosensitest (trade mark) broth was inoculated with a test organism at a concentration of 10^5 organisms per ml and a sample was dispensed into wells of a microliter plate. The range of concentration of test substance or combination was added to the wells so that there was a further 10-fold dilution of the test substance or combination. The plates were incubated for either 24 or 48 hours at 37° C., and the MIC read as the lowest concentration giving no visible growth. For each organism tested all conditions of inoculum preparation, inoculation and incubation were standardised throughout.
Procedure for C. albicans I: as §1
Procedure for C. albicans V ATCC 10231: as §1
Procedure for E. Coli 0029: as §1
Procedure for Enterococcus 0022: as §1
Procedure for Staph. aureus 1300: as §1
Procedure for Staph. aureus NCTC 10788: as §1

`Clc1ccccc1C(c1ccccc1)(c1ccccc1)n1ccnc1` [Clotrimazole, 1-{(2-chlorophenyl)diphenylmethyl}-1H-imidazole]: the MIC with C. albicans V was determined as 0.5 µg/mL; in the assay on C. albicans 159, 25 µg/mL (≈ 72.5 µM); in the assay with Staph. aureus 1300, 100 µg/mL (≈ 290 µM); in the assay with Staph. aureus NCTC 10788 it was 100 µg/mL (≈ 290 µM); in the assay on C. albicans V ATCC 10231 (Candida albicans, ATCC10231, read-out: MIC: Individual Agents) it was 12.5 µg/mL; with Enterococcus 0022, 100 µg/mL (≈ 290 µM). The MIC with C. albicans I stood at 5 µg/mL (≈ 14.5 µM). Besides, the “MIC: Combination of Agents, Clotrimazole” value with C. albicans V ATCC 10231 (Table 3) and in the assay with C. albicans V ATCC 10231 (Table 4) was 3.125 µg/mL in each case. In addition, the “MIC: Individual Agents” value in the assay with C. albicans V ATCC 10231 (Table 4) amounted to 12.5 µg/mL.

Take `Clc1ccc(COC(Cn2ccnc2)c2ccc(Cl)cc2Cl)c(Cl)c1` (centres unmarked) [Miconazole nitrate, 1-{2-(2,4-dichlorophenyl)-2-[(2,4-dichlorophenyl)methoxy]ethyl}-1H-imidazole]: the values for the MIC in the assay with Staph. aureus, in the assay on C. albicans V and in the assay on E. Coli 0029 were greater than 500 µg/mL, 62.5 µg/mL and greater than 500 µg/mL, respectively.

Consider `O=[N+]([O-])[O-].[Ag+]` [Silver nitrate, silver nitrate], for which, in the assay with C. albicans V ATCC 10231 (Table 3), the “MIC: Individual Agents” value stood at 25 µg/mL and the “MIC: Combination of Agents, Silver nitrate” value came out at 6.25 µg/mL. Moreover, in the assay on C. albicans V ATCC 10231 (Table 4), the “MIC: Individual Agents” value was found to be 25 µg/mL and the “MIC: Combination of Agents, Silver nitrate” value stood at 6.25 µg/mL.

The values above are taken from patent publication US4803066A, “Antibacterial and/or antifungal compositions for topical application” (Smith & Nephew Associated Companies p.l.c., priority 1986, dated 1989).
